pIC50: −log10 of the molar value.

The subject of this experiment is T1, mushroom tyrosinase.
T1 construct: mushroom tyrosinase (Sigma T-7755)
The experiment is described as follows: Mushroom Tyrosinase Assay. In kind it is biochemical. The settings on record: for skin lightening effectiveness (tyrosinase inhibition), in words: conclusion from Tables 8 and 9; for Percent of Control: slope ΔAbs 475 nm/min vs ethanol control; for pIC50: L-DOPA substrate, absorbency at 475 nm, pH 7.0, read-out: IC50 (skin lightener concentration that results in 50% tyrosinase inhibition relative to the control). On the procedure:
Mushroom tyrosinase inhibition is indicative of reduction in melanin synthesis, thereby showing skin lightening effect. […] Following an initial measurement of background absorbency at 475-nm, 20 microliters of mushroom tyrosinase (Sigma T-7755; 6050 units/ml) was added and incubated at room temperature. Absorbency is read at 475-nm over the following time points: 0, 2, 4, and 6.5 minutes. The data is plotted as 475-nm absorbency vs. time (minutes) and the slope of the line is calculated (ΔAbs 475 nm/ min).

Setting [1] is: Table 9, Concentration 1 micro M.
The mark [2] stands for this setting: Table 9, Concentration 10 micro M.
The mark [3] stands for this setting: Table 9, Concentration 50 micro M.
Where [4] appears, read: Table 9, Concentration 100 micro M.

On to `Cc1cc(O)cc(O)c1C` [4,5-di-Methyl Resorcinol, 4,5-dimethyl resorcinol], for which the “skin lightening effectiveness (tyrosinase inhibition), in words” value is “not as effective”. Besides, the “% of Control (Melanin Synthesis)” value under setting [1] is recorded as 95 % of Control. For the same compound, the “% of Control (Melanin Synthesis)” value under setting [2] is on record as 51 % of Control. Also, under setting [3], the “% of Control (Melanin Synthesis)” value is 35 % of Control. Moreover, the “% of Control (Melanin Synthesis)” value under setting [4] was 15 % of Control.

Regarding `Oc1cccc(O)c1` [Resorcinol, resorcinol], the “skin lightening effectiveness (tyrosinase inhibition), in words” value was “no activity”. Further, under setting [1], the “% of Control (Melanin Synthesis)” value is 98 % of Control. For the same compound, the “% of Control (Melanin Synthesis)” value under setting [2] was 98 % of Control. Further, the “% of Control (Melanin Synthesis)” value under setting [3] was 100 % of Control. Further, the “% of Control (Melanin Synthesis)” value under setting [4] is recorded as 100 % of Control.

On to `CC(C)c1ccc(O)cc1O` [4-Isopropyl Resorcinol, 4-isopropyl resorcinol], for which the pIC50 was approximately 7.30 and the “skin lightening effectiveness (tyrosinase inhibition), in words” value is listed as “effective skin lightening compounds”. Further, the “Percent of Control” value (Concentration 0.0156 micro M) was 80.6% of Control. Further, the “Percent of Control” value (Concentration 0.0312 micro M) is 60.9% of Control. Besides, the “Percent of Control” value (Concentration 0.0625 micro M) is reported as 46.6% of Control. The “Percent of Control” value (Concentration 0.125 micro M) is listed as 35.8% of Control. Further, the “Percent of Control” value (Concentration 0.25 micro M) is listed as 30.4% of Control. Also, where the note is “Concentration 0.5 micro M”, the “Percent of Control” value is recorded as 28.7% of Control. Further, the “Percent of Control” value (Concentration 1 micro M) is reported as 26.9% of Control. Also, the “Percent of Control” value (Concentration 10 micro M) was 28.7% of Control. The “Percent of Control” value (Concentration 50 micro M) was 28.7% of Control. Further, the “Percent of Control” value (Concentration 100 micro M) is on record as 30.4% of Control. The “% of Control (Melanin Synthesis)” value under setting [1] is recorded as 27 % of Control. For the same compound, the “% of Control (Melanin Synthesis)” value under setting [2] was 29 % of Control. Moreover, the “% of Control (Melanin Synthesis)” value under setting [3] was 29 % of Control. Further, under setting [4], the “% of Control (Melanin Synthesis)” value is 30 % of Control.

Take `CC(C)c1cc(C(C)C)c(O)cc1O` [4,6-Diisopropyl Resorcinol, 4,6-di-isopropyl resorcinol]: the pIC50 is 6.12 and the “skin lightening effectiveness (tyrosinase inhibition), in words” value is “comparable to 4-Ethyl Resorcinol”. Besides, the “Percent of Control” value (Concentration 0.0156 micro M) is 96.7% of Control. In addition, the “Percent of Control” value (Concentration 0.0312 micro M) is 94.9% of Control. Moreover, the “Percent of Control” value (Concentration 0.0625 micro M) is 93.1% of Control. In addition, the “Percent of Control” value (Concentration 0.125 micro M) was 86.0% of Control. For the setting “Concentration 0.25 micro M”, the “Percent of Control” value was 75.2% of Control. Besides, the “Percent of Control” value (Concentration 0.5 micro M) is 60.9% of Control. Moreover, the “Percent of Control” value (Concentration 1 micro M) is given as 48.4% of Control. Moreover, for the setting “Concentration 10 micro M”, the “Percent of Control” value is listed as 28.7% of Control. For the same compound, the “Percent of Control” value (Concentration 50 micro M) is given as 34.0% of Control. Moreover, for the setting “Concentration 100 micro M”, the “Percent of Control” value is listed as 39.4% of Control. Further, the “% of Control (Melanin Synthesis)” value under setting [1] is listed as 48 % of Control. For the same compound, the “% of Control (Melanin Synthesis)” value under setting [2] was 29 % of Control. Moreover, under setting [3], the “% of Control (Melanin Synthesis)” value is on record as 34 % of Control. In addition, the “% of Control (Melanin Synthesis)” value under setting [4] is given as 39 % of Control. In addition, the “skin lightening effectiveness (tyrosinase inhibition), in words” value (listed as 4,6-di-Isopropyl resorcinols) is “effective skin lightening compounds”.

Consider `CCc1ccc(O)cc1O` [4-Ethyl Resorcinol, 4-ethyl resorcinol], for which the pIC50 was 6.46. Also, the “Percent of Control” value (Concentration 0.0156 micro M) is 86% of Control. In addition, the “Percent of Control” value (Concentration 0.0312 micro M) was 82% of Control. For the same compound, under “Concentration 0.0625 micro M”, the “Percent of Control” value is recorded as 72% of Control. For the same compound, where the note is “Concentration 0.125 micro M”, the “Percent of Control” value is listed as 64% of Control. Further, where the note is “Concentration 0.25 micro M”, the “Percent of Control” value is listed as 57% of Control. The “Percent of Control” value (Concentration 0.5 micro M) was 43% of Control. The “Percent of Control” value (Concentration 1 micro M) is reported as 32% of Control. Moreover, the “Percent of Control” value (Concentration 10 micro M) is 25% of Control. Under “Concentration 50 micro M”, the “Percent of Control” value is reported as 21% of Control. For the setting “Concentration 100 micro M”, the “Percent of Control” value is recorded as 18% of Control. Moreover, the “% of Control (Melanin Synthesis)” value under setting [1] is listed as 32 % of Control. The “% of Control (Melanin Synthesis)” value under setting [2] was 25 % of Control. Moreover, under setting [3], the “% of Control (Melanin Synthesis)” value is given as 21 % of Control. Moreover, the “% of Control (Melanin Synthesis)” value under setting [4] is 18 % of Control.

These data come from patent US20040109832A1, “Di-substituted resorcinols as skin lightening agents” (Unilever Home & Personal Care USA, Division Of Conopco, Inc., priority 2002, published 2004).
